Consider eleven molecules from patent US20220281886A1, “NATRIURETIC PEPTIDE RECEPTOR A AGONISTS USEFUL FOR THE TREATMENT OF CARDIOMETABOLIC DISEASES, KIDNEY DISEASE AND DIABETES” (Merck Sharp & Dohme Corp., priority 2019, published 2022).

The target in the assay is T1, hNPRA (Homo sapiens, UniProt P16066).
T1 construct: expressed in transfected cells
T1 sequence (P16066 33-1061): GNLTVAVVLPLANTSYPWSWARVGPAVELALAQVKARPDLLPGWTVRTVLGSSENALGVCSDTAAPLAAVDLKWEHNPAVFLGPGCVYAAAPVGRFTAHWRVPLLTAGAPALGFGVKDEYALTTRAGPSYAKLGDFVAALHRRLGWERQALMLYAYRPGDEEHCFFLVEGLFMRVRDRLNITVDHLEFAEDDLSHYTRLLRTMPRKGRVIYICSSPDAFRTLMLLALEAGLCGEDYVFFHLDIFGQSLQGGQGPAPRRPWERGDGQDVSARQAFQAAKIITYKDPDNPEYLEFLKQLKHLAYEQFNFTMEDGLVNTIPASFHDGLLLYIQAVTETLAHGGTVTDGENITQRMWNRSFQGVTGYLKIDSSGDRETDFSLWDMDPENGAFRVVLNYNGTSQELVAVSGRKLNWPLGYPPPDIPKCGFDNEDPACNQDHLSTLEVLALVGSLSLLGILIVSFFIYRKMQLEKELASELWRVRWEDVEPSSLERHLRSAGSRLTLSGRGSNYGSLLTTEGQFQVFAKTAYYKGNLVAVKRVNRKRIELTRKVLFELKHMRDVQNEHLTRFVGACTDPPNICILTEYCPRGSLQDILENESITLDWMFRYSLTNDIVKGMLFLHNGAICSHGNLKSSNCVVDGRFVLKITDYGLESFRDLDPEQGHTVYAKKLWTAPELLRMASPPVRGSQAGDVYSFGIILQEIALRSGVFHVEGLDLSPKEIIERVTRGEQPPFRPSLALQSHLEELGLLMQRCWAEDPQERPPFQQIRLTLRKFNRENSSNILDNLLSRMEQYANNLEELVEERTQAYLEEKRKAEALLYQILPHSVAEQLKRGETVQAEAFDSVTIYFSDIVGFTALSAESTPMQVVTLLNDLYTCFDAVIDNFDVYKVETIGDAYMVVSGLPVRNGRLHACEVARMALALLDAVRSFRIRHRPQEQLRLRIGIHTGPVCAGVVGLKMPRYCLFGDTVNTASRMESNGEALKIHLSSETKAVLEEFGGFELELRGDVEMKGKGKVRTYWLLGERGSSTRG
Nature of the assay: NPRA Functional Cell Assay (cGMP HTRF). It counts as cell-based. To be noted: Human NPRA HEK JumpIn stable cells; cGMP by HTRF after 1 hour at 37° C.; 10-point dose response. In short, it runs like this: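 HEK JumpIn cells stably expressing human, rat or dog NPRA incubated 1 hour at 37° C with compound (10-point titration) in Opti-MEM buffer with 100 uM IBMX and 100 uM RO20. cGMP measured by HTRF against an on-plate calibration curve; EC50 from 4-parameter fit, positive control 10 nM rat-ANP (rat) or 50 nM h-ANP (human, dog).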
As for `CN1CC(NC(=O)c2cccc([C@@H](CCN3CCC[C@H]3CO)NC(=O)c3ccc4nc5c(cc4c3)C[C@@H](C3(C(F)(F)F)CC3)CC5)c2)C1` [Example 22, (S)-N-((R)-3-((S)-2-(hydroxymethyl)pyrrolidin-1-yl)-1-(3-((1-methylazetidin-3-yl)carbamoyl)phenyl)propyl)-7-(1-(trifluoromethyl)cyclopropyl)-5,6,7,8-tetrahydroacridine-2-carboxamide], a half-maximal response (EC50) required 278 nM. That is a sub-micromolar value.

In the case of `CN1CC(NC(=O)c2cccc([C@@H](CCN3CCC[C@H]3CO)NC(=O)c3ccc4nc5c(cc4c3)C[C@@H](C3(C(F)F)CC3)CC5)c2)C1` [Example 23], a half-maximal response (EC50) required 405 nM. In the case of `COC(=O)C1CCN(CC[C@@H](NC(=O)c2cc(F)c3nc4c(cc3c2)C[C@](F)(C(C)C)CC4)c2ccc(-c3cnc(O)c(F)c3)cc2)CC1` [Example 24, methyl 1-((R)-3-((S)-4,7-difluoro-7-isopropyl-5,6,7,8-tetrahydroacridine-2-carboxamido)-3-(4-(5-fluoro-6-hydroxypyridin-3-yl)phenyl)propyl)piperidine-4-carboxylate] it was 237 nM; in that of `CC(C)[C@]1(F)CCc2nc3c(F)cc(C(=O)N[C@H](CCN4CCC(C(=O)O)CC4)c4ccc(-c5cnc(O)c(F)c5)cc4)cc3cc2C1` [Example 25, 1-((R)-3-((S)-4,7-difluoro-7-isopropyl-5,6,7,8-tetrahydroacridine-2-carboxamido)-3-(4-(5-fluoro-6-hydroxypyridin-3-yl)phenyl)propyl)piperidine-4-carboxylic acid], 167 nM; in that of `CC(C)[C@]1(F)CCc2nc3c(F)cc(C(=O)N[C@H](CCN4CCC(O)CC4)c4ccc(NS(=O)(=O)N(C)C)nc4)cc3cc2C1` [Example 26, (S)-N-((R)-1-(6-((N,N-dimethylsulfamoyl)amino)pyridin-3-yl)-3-(4-hydroxypiperidin-1-yl)propyl)-4,7-difluoro-7-isopropyl-5,6,7,8-tetrahydroacridine-2-carboxamide], 246 nM. In turn, `CC(C)[C@]1(F)CCc2nc3c(F)cc(C(=O)N[C@H](CCN4CCC(O)CC4)c4cnc(NS(=O)(=O)N(C)C)c(F)c4)cc3cc2C1` [Example 27, (S)-N-((R)-1-(6-((N,N-dimethylsulfamoyl)amino)-5-fluoropyridin-3-yl)-3-(4-hydroxypiperidin-1-yl)propyl)-4,7-difluoro-7-isopropyl-5,6,7,8-tetrahydroacridine-2-carboxamide] gave an EC50 of 2450 nM. To `CC(C)[C@]1(F)CCc2nc3c(F)cc(C(=O)N[C@H](CCN4CCC(O)CC4)c4ccc(N5CC(=O)NC5=O)nc4)cc3cc2C1` [Example 28] belongs 321 nM; to `CC1C(=O)NC(=O)N1c1ccc([C@@H](CCN2CCC(O)CC2)NC(=O)c2cc(F)c3nc4c(cc3c2)C[C@](F)(C(C)C)CC4)cn1` (stereo partly drawn) [Example 29, (7S)-4,7-difluoro-N-((1R)-3-(4-hydroxypiperidin-1-yl)-1-(6-(5-methyl-2,4-dioxoimidazolidin-1-yl)pyridin-3-yl)propyl)-7-isopropyl-5,6,7,8-tetrahydroacridine-2-carboxamide], 275 nM; to `CC(C)[C@]1(F)CCc2nc3c(F)cc(C(=O)N[C@H](CCN4CCC(O)CC4)c4ccc(-c5cn[nH]c5)nc4)cc3cc2C1` [Example 32, (S)-N-((R)-1-(6-(1H-pyrazol-4-yl)pyridin-3-yl)-3-(4-hydroxypiperidin-1-yl)propyl)-4,7-difluoro-7-isopropyl-5,6,7,8-tetrahydroacridine-2-carboxamide], 217 nM. To `CC(C)[C@]1(F)CCc2nc3c(F)cc(C(=O)N[C@H](CCN4CCC(O)CC4)c4ccc(N5CC[C@@H](O)[C@H](F)C5)nc4)cc3cc2C1` [Example 33, (S)-4,7-difluoro-N-((R)-1-(6-((3R,4R)-3-fluoro-4-hydroxypiperidin-1-yl)pyridin-3-yl)-3-(4-hydroxypiperidin-1-yl)propyl)-7-isopropyl-5,6,7,8-tetrahydroacridine-2-carboxamide] belongs 871 nM. In turn, `CC(C)[C@]1(F)CCc2nc3c(F)cc(C(=O)N[C@H](CCN4CCC(O)CC4)c4ccc(N5CC6CCC5CO6)nc4)cc3cc2C1` (stereo partly drawn) [Example 34, (7S)-N-((1R)-1-(6-(2-oxa-5-azabicyclo[2.2.2]octan-5-yl)pyridin-3-yl)-3-(4-hydroxypiperidin-1-yl)propyl)-4,7-difluoro-7-isopropyl-5,6,7,8-tetrahydroacridine-2-carboxamide] had an EC50 of 2840 nM.
